Measurements as given in patent US4920127A, “Substituted indoles and their use as 5-HT3 receptor antagonists” (Beecham Group p.l.c., priority 1987, dated 1990).
Where a name gives a salt, the structure may show the parent alone.

What follows are molecules tested on von Bezold-Jarisch reflex evoked by 5-HT (assay: Antagonism of the von Bezold-Jarisch reflex evoked by 5-HT in the anaesthetised rat). Conditions: iv, male rats, urethane anaesthesia, compounds intravenously, 5-HT usually 6 μg/kg i.v., heart rate changes, read-out: ED50 (concentration required to reduce the 5HT-evoked response to 50% of the control response).
Type: in vivo
Experimental: Antagonism of the von Bezold-Jarisch reflex
The compounds were evaluated for antagonism of the von Bezold-Jarisch reflex evoked by 5-HT in the anaesthetised rat according to the following method:
Male rats, 250-350 g, were anaesthetised with urethane (1.25 g/kg intraperitoneally) and blood pressure and heart rate recorded as described by Fozard J. R. et al., J. Cardiovasc. Pharmacol. 2, 229-245 (1980). A submaximal dose of 5-HT (usually 6 μg/kg) was given repeatedly by the intravenous route and changes in heart rate quantified. Compounds were given intravenously and the concentration required to reduce the 5HT-evoked response to 50% of the control response (ED50) was then determined.

Question: How did the ED50 turn out when CN1[C@@H]2CC[C@H]1C[C@@H](NC(=O)N1CC3(CCCCC3)c3ccccc31)C2 [Compound 1] was run?
Answer: The ED50 was 3.6 µg/kg.

Question: Which ED50 does the source give for CN1[C@@H]2CC[C@H]1C[C@@H](NC(=O)N1CC3(CC3)c3ccccc31)C2 [Compound 6] here?
Answer: Its ED50 is 3.5 µg/kg.

Question: For O=C(NC1CN2CCC1CC2)N1CC(c2ccccc2)c2ccccc21 (stereo not shown) [Compound 8, N-(1-Azabicyclo[2.2.2]oct-3-yl)2,3-dihydro-3-phenylindol-1-yl urea hydrochloride], which ED50 is on record?
Answer: The ED50 was 1.2 µg/kg.

Question: With CN1[C@@H]2CC[C@H]1C[C@@H](NC(=O)N1CC3(CCCC3)c3ccccc31)C2 [Compound 10] as the molecule, how does the ED50 read?
Answer: The ED50 was 1.8 µg/kg.
